This note sets out measurements from ChEMBL document CHEMBL5137080, “Discovery of Novel 7-Hydroxy-5-oxo-4,5-dihydrothieno[3,2-b]pyridine-6-carboxamide Derivatives with Potent and Selective Antifungal Activity against Cryptococcus Species” (J Med Chem, 2022).

The test system of series [1] is Candida parapsilosis. Put plainly: Synergistic antifungal activity against Candida parapsilosis ATCC22019 assessed as fractional inhibitory concentration index incubated for 48 hrs in presence of P163-0892 by broth microdilution method. Type of series: functional.
Series [2] deals with Cryptococcus deuterogattii. Put plainly: Synergistic antifungal activity against Cryptococcus gattii WM178 assessed as fractional inhibitory concentration index incubated for 72 hrs in presence of P163-0892 by broth microdilution method. Type of series: functional, Cryptococcus gattii species complex. In general terms: In broth dilution the organism is exposed to a series of concentrations in liquid medium.

Series [3] deals with Cryptococcus neoformans. Put plainly: Synergistic antifungal activity against Cryptococcus neoformans clinical isolate HN15 assessed as fractional inhibitory concentration index incubated for 72 hrs in presence of P163-0892 by broth microdilution method. Type of series: functional.
Series [4] has as its system Cryptococcus gattii species complex. Put plainly: Antifungal activity against Cryptococcus gattii E566 assessed as fungal growth inhibition incubated for 72 hrs in presence of P163-0892 by broth microdilution method. Type of series: functional.
Series [5] deals with Cryptococcus neoformans. Put plainly: Synergistic antifungal activity against Cryptococcus neoformans H99 assessed as fractional inhibitory concentration index incubated for 72 hrs in presence of P163-0892 by broth microdilution method. Type of series: functional.
Series [6] has as its system Cryptococcus neoformans. Put plainly: Synergistic antifungal activity against Cryptococcus neoformans clinical isolate HN19 assessed as fractional inhibitory concentration index incubated for 72 hrs in presence of P163-0892 by broth microdilution method. Type of series: functional.
Series [7] concerns Cryptococcus gattii. Put plainly: Synergistic antifungal activity against Cryptococcus gattii WM179 assessed as fractional inhibitory concentration index incubated for 72 hrs in presence of P163-0892 by broth microdilution method. Type of series: functional, Cryptococcus gattii species complex.
Series [8] relates to Cryptococcus neoformans. Put plainly: Antifungal activity against Cryptococcus neoformans H99 assessed as fungal growth inhibition incubated for 72 hrs in presence of P163-0892 by broth microdilution method. Type of series: functional.
Series [9] has as its system Cryptococcus gattii. Put plainly: Antifungal activity against Cryptococcus gattii WM179 assessed as fungal growth inhibition incubated for 72 hrs in presence of P163-0892 by broth microdilution method. Type of series: functional, Cryptococcus gattii species complex.
Series [10] concerns Cryptococcus gattii species complex. Put plainly: Synergistic antifungal activity against Cryptococcus gattii E566 assessed as fractional inhibitory concentration index incubated for 72 hrs in presence of P163-0892 by broth microdilution method. Type of series: functional.
The subject of series [11] is Cryptococcus deuterogattii. Put plainly: Antifungal activity against Cryptococcus gattii WM178 infected in Wax moth larvae assessed as survival rate at 10 mg/kg measured after 9 days in presence of P163-0892 by Kaplan-Meier method. Type of series: functional, Cryptococcus gattii species complex. To be noted: WM178, 216 h, time 9 day.
Series [12] relates to Cryptococcus gattii species complex. Put plainly: Synergistic antifungal activity against Cryptococcus gattii clinical isolate SCZ20024 assessed as fractional inhibitory concentration index incubated for 72 hrs in presence of P163-0892 by broth microdilution method. Type of series: functional.
For series [13], the system named is Candida albicans. Put plainly: Synergistic antifungal activity against Candida albicans SC5314 assessed as fractional inhibitory concentration index incubated for 48 hrs in presence of P163-0892 by broth microdilution method. Type of series: functional.
Series [14] concerns Cryptococcus neoformans. Put plainly: Synergistic antifungal activity against Cryptococcus neoformans clinical isolate HN2 assessed as fractional inhibitory concentration index incubated for 72 hrs in presence of P163-0892 by broth microdilution method. Type of series: functional.
Series [15] concerns Pichia kudriavzevii. Put plainly: Antifungal activity against Candida krusei ATCC2340 assessed as fungal growth inhibition incubated for 48 hrs in presence of Fluconazole by broth microdilution method. Type of series: functional.
Series [16] has as its system Cryptococcus neoformans. Put plainly: Antifungal activity against Cryptococcus neoformans clinical isolate 56992 assessed as fungal growth inhibition incubated for 72 hrs in presence of Fluconazole by broth microdilution method. Type of series: functional.
Series [17] relates to Cryptococcus neoformans. Put plainly: Synergistic antifungal activity against Cryptococcus neoformans clinical isolate BJ3 assessed as fractional inhibitory concentration index incubated for 72 hrs in presence of Fluconazole by broth microdilution method. Type of series: functional.
Series [18] can be described thus: C0 in Sprague-Dawley rat at 2 mg/kg,iv by LC-MS/MS analysis. Type of series: ADME, organism-based. To be noted: in vivo.
For series [19], the system named is Cryptococcus neoformans. Put plainly: Synergistic antifungal activity against Cryptococcus neoformans clinical isolate 56992 assessed as fractional inhibitory concentration index incubated for 72 hrs in presence of Fluconazole by broth microdilution method. Type of series: functional.
Series [20] has as its system Cryptococcus neoformans. Put plainly: Synergistic antifungal activity against Cryptococcus neoformans clinical isolate HN1 assessed as fractional inhibitory concentration index incubated for 72 hrs in presence of Fluconazole by broth microdilution method. Type of series: functional.
Series [21] deals with Cryptococcus deuterogattii. Put plainly: Antifungal activity against Cryptococcus gattii WM178 assessed as reduction on fungal growth at 8 ug/ml incubated for 48 hrs by plate reader assay. Type of series: functional, organism-based. The following applies: Cryptococcus gattii species complex, dose 8.0 µg/ml.
For series [22], the system named is Cryptococcus neoformans. Put plainly: Synergistic antifungal activity against Cryptococcus neoformans clinical isolate HN15 assessed as fractional inhibitory concentration index incubated for 72 hrs in presence of Fluconazole by broth microdilution method. Type of series: functional.
Series [23] relates to Candida parapsilosis. Put plainly: Synergistic antifungal activity against Candida parapsilosis ATCC22019 assessed as fractional inhibitory concentration index incubated for 48 hrs in presence of Fluconazole by broth microdilution method. Type of series: functional.
The subject of series [24] is Cryptococcus gattii species complex. Put plainly: Synergistic antifungal activity against Cryptococcus gattii clinical isolate SCZ20024 assessed as fractional inhibitory concentration index incubated for 72 hrs in presence of Fluconazole by broth microdilution method. Type of series: functional.
Series [25] concerns Cryptococcus neoformans. Put plainly: Synergistic antifungal activity against Cryptococcus neoformans H99 assessed as fractional inhibitory concentration index incubated for 72 hrs in presence of Fluconazole by broth microdilution method. Type of series: functional.
Series [26] has as its system Nakaseomyces glabratus. Put plainly: Antifungal activity against Candida glabrata ATCC1182 assessed as fungal growth inhibition incubated for 48 hrs in presence of Fluconazole by broth microdilution method. Type of series: functional.
Series [27] deals with Cryptococcus gattii species complex. Put plainly: Synergistic antifungal activity against Cryptococcus gattii E566 assessed as fractional inhibitory concentration index incubated for 72 hrs in presence of Fluconazole by broth microdilution method. Type of series: functional.
Series [28] can be described thus: Selectivity index, ratio of IC50 for human HUVEC to MIC for antifungal activity against Cryptococcus neoformans. Type of series: toxicity. To be noted: HUVEC cells, read-out: Selectivity Index.
For series [29], the system named is Cryptococcus neoformans. Put plainly: Antifungal activity against Cryptococcus neoformans clinical isolate 445 assessed as fungal growth inhibition incubated for 72 hrs in presence of Fluconazole by broth microdilution method. Type of series: functional.
Series [30] concerns Cryptococcus gattii species complex. Put plainly: Antifungal activity against Cryptococcus gattii clinical isolate SCZ20024 assessed as fungal growth inhibition incubated for 72 hrs in presence of Fluconazole by broth microdilution method. Type of series: functional.
Series [31] deals with Cryptococcus neoformans. Put plainly: Synergistic antifungal activity against Cryptococcus neoformans clinical isolate HN2-40 assessed as fractional inhibitory concentration index incubated for 72 hrs in presence of Fluconazole by broth microdilution method. Type of series: functional.
For series [32], the target named is Voltage-gated inwardly rectifying potassium channel KCNH2 (Homo sapiens, UniProt Q12809). Put plainly: Inhibition of human […] potassium channel by automated patch clamp electrophysiology. Type of series: toxicity. A general note: In patch-clamp work, channel activity is measured electrically.
Voltage-gated inwardly rectifying potassium channel KCNH2, sequence (Q12809 whole entry): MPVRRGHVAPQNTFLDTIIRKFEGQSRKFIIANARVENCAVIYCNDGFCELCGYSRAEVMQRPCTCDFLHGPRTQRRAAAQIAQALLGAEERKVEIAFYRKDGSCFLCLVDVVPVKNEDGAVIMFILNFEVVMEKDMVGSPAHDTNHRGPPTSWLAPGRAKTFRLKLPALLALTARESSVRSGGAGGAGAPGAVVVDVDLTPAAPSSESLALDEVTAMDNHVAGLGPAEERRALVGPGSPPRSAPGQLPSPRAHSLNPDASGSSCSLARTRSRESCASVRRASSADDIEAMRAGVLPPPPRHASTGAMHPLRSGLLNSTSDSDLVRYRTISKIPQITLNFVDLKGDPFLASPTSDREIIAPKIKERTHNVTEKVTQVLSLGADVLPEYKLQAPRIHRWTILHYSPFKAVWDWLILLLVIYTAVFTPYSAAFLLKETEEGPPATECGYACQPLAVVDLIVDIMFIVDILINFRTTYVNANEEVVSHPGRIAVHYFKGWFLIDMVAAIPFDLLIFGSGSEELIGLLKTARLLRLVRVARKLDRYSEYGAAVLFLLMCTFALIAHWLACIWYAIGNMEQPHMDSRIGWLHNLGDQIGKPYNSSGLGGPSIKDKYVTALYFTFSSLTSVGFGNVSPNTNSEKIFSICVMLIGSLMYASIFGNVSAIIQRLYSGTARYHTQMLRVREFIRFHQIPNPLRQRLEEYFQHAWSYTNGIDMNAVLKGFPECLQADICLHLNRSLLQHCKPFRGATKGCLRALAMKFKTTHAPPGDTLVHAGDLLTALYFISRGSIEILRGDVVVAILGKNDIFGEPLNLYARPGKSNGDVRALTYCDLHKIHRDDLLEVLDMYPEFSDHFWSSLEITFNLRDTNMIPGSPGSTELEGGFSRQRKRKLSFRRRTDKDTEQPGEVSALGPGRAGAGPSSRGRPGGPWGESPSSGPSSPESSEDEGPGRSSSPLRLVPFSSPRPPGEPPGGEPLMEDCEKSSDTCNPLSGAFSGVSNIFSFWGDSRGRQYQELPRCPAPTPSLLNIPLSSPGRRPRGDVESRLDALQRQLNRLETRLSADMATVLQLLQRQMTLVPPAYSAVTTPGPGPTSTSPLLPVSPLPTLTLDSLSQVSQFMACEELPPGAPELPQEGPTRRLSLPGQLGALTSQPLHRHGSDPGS
Series [33] in a line: Half life in Sprague-Dawley rat at 2 mg/kg,iv by LC-MS/MS analysis. Type of series: ADME, organism-based. The following applies: in vivo.
Series [34] concerns Candida parapsilosis. Put plainly: Antifungal activity against Candida parapsilosis ATCC22019 assessed as fungal growth inhibition incubated for 48 hrs by broth microdilution method. Type of series: functional. To be noted: Lodderomyces parapsilosis.
Series [35] relates to Cryptococcus deuterogattii. Put plainly: Antifungal activity against Cryptococcus gattii WM178 assessed as reduction on fungal growth at 2 ug/ml incubated for 48 hrs by plate reader assay. Type of series: functional, Cryptococcus gattii species complex. More on the design: scale not given: the % may be the effect or the level left. The following applies: dose 2 µg/ml.
The subject of series [36] is Candida tropicalis. Put plainly: Antifungal activity against Candida tropicalis ATCC20026 assessed as fungal growth inhibition incubated for 48 hrs in presence of Fluconazole by broth microdilution method. Type of series: functional.
In series [37] the test system is Cryptococcus neoformans. Put plainly: Antifungal activity against Cryptococcus neoformans H99 assessed as fungal growth inhibition incubated for 72 hrs in presence of Fluconazole by broth microdilution method. Type of series: functional.
Series [38] relates to Pichia kudriavzevii. Put plainly: Synergistic antifungal activity against Candida krusei ATCC2340 assessed as fractional inhibitory concentration index incubated for 48 hrs in presence of Fluconazole by broth microdilution method. Type of series: functional.
Series [39] has as its system Candida tropicalis. Put plainly: Synergistic antifungal activity against Candida tropicalis ATCC20026 assessed as fractional inhibitory concentration index incubated for 48 hrs in presence of Fluconazole by broth microdilution method. Type of series: functional.

Structures are written as SMILES. pIC50: −log10 of the molar value. The source made the active and inactive calls. The calls are words filed in the database; no cut-off is given here.

For `OC(Cn1cncn1)(Cn1cncn1)c1ccc(F)cc1F` [FLUCONAZOLE], the “fractional inhibitory concentration index (FICI)” value in series [1] was determined as 0.625; in series [2], 0.25; in series [3], 0.313; in series [5], 0.375; in [6] it was 0.281; in series [7], 0.25. Besides, the “fractional inhibitory concentration index (FICI)” value was 0.188 in series [10], 0.313 in series [12], 1.008 in series [13] and 0.188 in series [14]. Further, the MIC (in general, the lowest concentration that inhibits growth of the organism) in series [4] worked out at 0.5 µg/mL; in series [8], 2 µg/mL; in [9] it was 0.5 µg/mL. The survival at 10 mg/kg in series [11] was determined as 70%.

For the molecule `CCCCNC(=O)c1c(O)c2sccc2n(Cc2ccccc2)c1=O`, the minimum inhibitory concentration (MIC) in series [15] was 8 µg/mL; in series [16], 0.125 µg/mL; in series [26], 16 µg/mL; in series [29], 0.125 µg/mL; in series [30] it was 0.0313 µg/mL; in series [34], above 64 µg/mL. For the same molecule, the MIC in series [36] turned out to be 2 µg/mL; in series [37], 0.0625 µg/mL. In addition, the “fractional inhibitory concentration index (FICI)” value in series [17] came out at 0.188; in series [19], 0.25; in series [20], 0.125; in series [22] it was 0.313; in series [23], 0.625; in [24] it was 0.313. In addition, the “fractional inhibitory concentration index (FICI)” value was determined as 0.375 in series [25]; 0.188 in series [27]; 0.188 in [31]; 0.563 in series [38]; 0.516 in series [39]. Also, in [18], the C0 was found to be 2460 ng/mL. In series [21], the result was Active. Moreover, the selectivity ratio in [28] was above 256. In addition, the pIC50 – broadly, the IC50 on a negative log10 scale, so that one unit is a factor of ten – in series [32] is 4.63. The same molecule gave a t1/2 in series [33] of 7.61 h. The Activity in series [35] is on record as 45.5%.
